Laboratory results from patent US20250179103A1, “6-OXODECAHYDROPYRROLO[1,2-A][1,5]DIAZOCINE AND 6-OXODECAHYDRO-4H-PYRROLO[2,1-D][1,5]THIAZOCINE DERIVATIVES AS STAT3 AND STAT6 MODULATORS FOR THE TREATMENT OF CANCER AND INFLAMMATORY CONDITIONS” (Recludix Pharma, Inc., priority 2022, published 2025).

Columns and labels:
[1] = biological target: T1, Recombinant STAT3 protein (STAT3(G127-I722)) (Homo sapiens, UniProt P40763); assay: STAT3 Fluorescence Polarization (FP) Assay; format: binding; settings: STAT3(G127-I722) 25 nM, probe 5-FAM-GpYLPQTV-NH2 2 nM, 45-minute incubation
T1 construct: Recombinant STAT3 protein (STAT3(G127-I722))
T1 sequence (P40763 127-722): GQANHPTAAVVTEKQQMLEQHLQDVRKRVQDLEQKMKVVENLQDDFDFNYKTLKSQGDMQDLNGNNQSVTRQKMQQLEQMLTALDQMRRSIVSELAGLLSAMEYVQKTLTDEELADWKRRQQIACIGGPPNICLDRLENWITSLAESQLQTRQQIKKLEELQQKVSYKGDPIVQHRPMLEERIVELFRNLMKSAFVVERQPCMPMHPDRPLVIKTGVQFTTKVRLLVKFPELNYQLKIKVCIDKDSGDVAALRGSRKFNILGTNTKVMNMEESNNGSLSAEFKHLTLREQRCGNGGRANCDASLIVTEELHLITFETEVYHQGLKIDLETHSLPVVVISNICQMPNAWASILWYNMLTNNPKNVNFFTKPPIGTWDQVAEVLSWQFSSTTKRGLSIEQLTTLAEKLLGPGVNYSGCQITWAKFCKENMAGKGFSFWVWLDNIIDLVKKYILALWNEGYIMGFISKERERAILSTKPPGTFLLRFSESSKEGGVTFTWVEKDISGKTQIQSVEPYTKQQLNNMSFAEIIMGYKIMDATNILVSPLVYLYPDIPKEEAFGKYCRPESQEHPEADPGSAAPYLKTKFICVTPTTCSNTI
Summary of the method: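 STAT3(G127-I722), 25 nM, was mixed with 2 nM 5-FAM-GpYLPQTV-NH2 probe in HEPES pH 7.4 buffer with 1% DMSO and serially diluted compound. FP (mP) was read after 45 min at room temperature. IC50 came from nonlinear regression.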

[2] = biological target: T2, Recombinant STAT6 protein (STAT6(W123-T658)) (Homo sapiens, UniProt P42226); assay: STAT6 Fluorescence Polarization (FP) Assay; format: binding; settings: STAT6(W123-T658) 250 nM, probe 5-FAM-ApYKPFQDLI-NH2 2 nM, 45-minute incubation
T2 construct: Recombinant STAT6 protein (STAT6(W123-T658))
T2 sequence (P42226 123-658): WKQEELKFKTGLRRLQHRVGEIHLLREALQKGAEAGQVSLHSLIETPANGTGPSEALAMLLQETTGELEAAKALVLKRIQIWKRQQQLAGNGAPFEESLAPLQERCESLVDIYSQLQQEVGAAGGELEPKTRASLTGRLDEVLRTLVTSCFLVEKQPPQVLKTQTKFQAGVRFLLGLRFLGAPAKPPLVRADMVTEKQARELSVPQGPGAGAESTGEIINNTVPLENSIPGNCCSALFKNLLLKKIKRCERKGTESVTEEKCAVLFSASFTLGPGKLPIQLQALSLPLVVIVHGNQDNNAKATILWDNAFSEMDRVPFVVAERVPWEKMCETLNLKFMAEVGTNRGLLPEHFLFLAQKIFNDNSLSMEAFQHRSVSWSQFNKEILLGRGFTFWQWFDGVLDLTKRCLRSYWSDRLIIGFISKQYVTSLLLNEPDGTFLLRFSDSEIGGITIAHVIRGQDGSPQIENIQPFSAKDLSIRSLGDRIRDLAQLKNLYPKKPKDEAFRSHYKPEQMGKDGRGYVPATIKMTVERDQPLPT
Summary of the method: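 Displacement of a fluorescent phosphotyrosine peptide (5-FAM-ApYKPFQDLI-NH2, 2 nM) from STAT6(W123-T658) (250 nM), 1% DMSO, pH 7.4 HEPES buffer. After 45 min at room temperature, polarization (mP) was plotted versus log compound concentration and fitted by nonlinear regression to give IC50.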

Row | Compound | IC50 [1] | IC50 [2]
1 | CC(=O)N1CC[C@H]2CC[C@@H](C(=O)N(C)c3ccccc3)N2C(=O)[C@@H](NC(=O)c2ccc3cc(C(F)(F)P(=O)(O)O)ccc3c2)C1 [Compound 112, ((6-(((5S,8S,10aR)-3-acetyl-8-(methyl(phenyl)carbamoyl)-6-oxodecahydropyrrolo[1,2-a][1,5]diazocin-5-yl)carbamoyl)naphthalen-2-yl)difluoromethyl)phosphonic acid] | > 10000 nM | > 30000 nM
2 | CCN1CC[C@H]2CC[C@@H](C(=O)N3CC(C(=O)N4CCOCC4)C3)N2C(=O)[C@@H](NC(=O)c2cc3cc(C(F)(F)P(=O)(O)O)ccc3s2)C1 [Compound 278, ((2-(((5S,8S,10aR)-3-ethyl-8-(3-(morpholine-4-carbonyl)azetidine-1-carbonyl)-6-oxodecahydropyrrolo[1,2-a][1,5]diazocin-5-yl)carbamoyl)benzo[b]thiophen-5-yl)difluoromethyl)phosphonic acid] | 100 to 1000 nM | 3000 to 30000 nM
3 | CC(=O)N1CC[C@H]2CC[C@@H](C(=O)N(C)c3ccccc3)N2C(=O)[C@@H](NC(=O)c2cc3cc(C(F)(F)P(=O)(O)O)ccc3[nH]2)C1 [Compound 30] | 1000 to 10000 nM | 300 to 3000 nM
4 | CN(C(=O)[C@@H]1CC[C@@H]2CCN(C(=O)CCc3ccccc3)C[C@H](NC(=O)c3cc4cc(C(F)(F)P(=O)(O)O)ccc4[nH]3)C(=O)N21)c1ccccc1 [Compound 253, (difluoro(2-(((5S,8S,10aR)-8-(methyl(phenyl)carbamoyl)-6-oxo-3-(3-phenylpropanoyl)decahydropyrrolo[1,2-a][1,5]diazocin-5-yl)carbamoyl)-1H-indol-5-yl)methyl)phosphonic acid] | 1000 to 10000 nM | ≤ 300 nM
5 | CC(=O)N1CC[C@H]2CC[C@@H](C(=O)N3C[C@@H](O)[C@H](n4ccnn4)C3)N2C(=O)[C@@H](NC(=O)c2ccc3ccc(C(F)(F)P(=O)(O)O)cc3c2)C1 (relative stereo) [Compound 5, ((7-(((5S,8S,10aR)-3-acetyl-8-((3R,4R)-3-hydroxy-4-(1H-1,2,3-triazol-1-yl)pyrrolidine-1-carbonyl)-6-oxodecahydropyrrolo[1,2-a][1,5]diazocin-5-yl)carbamoyl)naphthalen-2-yl)difluoromethyl)phosphonic Acid] | 1000 to 10000 nM | 300 to 3000 nM
6 | CC(=O)N1CC[C@H]2CC[C@@H](C(=O)N3CC(C(=O)N4CCCCC4)C3)N2C(=O)[C@@H](NC(=O)c2cc3cc(C(F)(F)P(=O)(O)O)ccc3[nH]2)C1 [Compound 128, ((2-(((5S,8S,10aR)-3-acetyl-6-oxo-8-(3-(piperidine-1-carbonyl)azetidine-1-carbonyl)decahydropyrrolo[1,2-a][1,5]diazocin-5-yl)carbamoyl)-1H-indol-5-yl)difluoromethyl)phosphonic acid] | 100 to 1000 nM | 300 to 3000 nM
7 | CC(=O)N1CC[C@H]2CC[C@@H](C(=O)N(C)[C@H]3CN(C(C)=O)C[C@@H]3O)N2C(=O)[C@@H](NC(=O)c2cc3cc(C(F)(F)P(=O)(O)O)ccc3s2)C1 [Compound 183, ((2-(((5S,8S,10aR)-3-acetyl-8-(((3S,4S)-1-acetyl-4-hydroxypyrolidin-3-yl)(methyl)carbamoyl)-6-oxodecaohydrpyrrolo[1,2-a][1,5]diazocin-5-yl)carbamoyl)benzo[b]thiophen-5-yl)difluoromethyl)phosphonic acid] | 1000 to 10000 nM | 300 to 3000 nM
8 | CC(C)CN1CC[C@H]2CC[C@@H](C(=O)N3CC(C(=O)N4CCOCC4)C3)N2C(=O)[C@@H](NC(=O)c2cc3cc(C(F)(F)P(=O)(O)O)ccc3s2)C1 [Compound 257, (difluoro(2-(((5S,8S,10aR)-3-isobutyl-8-(3-(morpholine-4-carbonyl)azetidine-1-carbonyl)-6-oxodecahydropyrrolo[1,2-a][1,5]diazocin-5-yl)carbamoyl)benzo[b]thiophen-5-yl)methyl)phosphonic acid] | 100 to 1000 nM | 3000 to 30000 nM
9 | CC(=O)N1CC[C@H]2CC[C@@H](C(=O)N3CCCC3Cc3cccc(Cl)c3)N2C(=O)[C@@H](NC(=O)c2cc3cc(C(F)(F)P(=O)(O)O)ccc3[nH]2)C1 (stereo partly drawn) [Compound 132, ((2-(((5S,8S,10aR)-3-acetyl-8-(2-(3-chlorobenzyl)pyrrolidine-1-carbonyl)-6-oxodecahydropyrrolo[1,2-a][1,5]diazocin-5-yl)carbamoyl)-1H-indol-5-yl)difluoromethyl)phosphonic acid] | 1000 to 10000 nM | 300 to 3000 nM
10 | CC(=O)N1CC[C@H]2CC[C@@H](C(=O)N(C)c3ccc(C#N)cc3)N2C(=O)[C@@H](NC(=O)c2cc3cc(C(F)(F)P(=O)(O)O)ccc3[nH]2)C1 [Compound 168, ((2-(((5S,8S,10aR)-3-acetyl-8-((4-cyanophenyl)(methyl)carbamoyl)-6-oxodecahydropyrrolo[1,2-a][1,5]diazocin-5-yl)carbamoyl)-1H-indol-5-yl)difluoromethyl)phosphonic acid] | 1000 to 10000 nM | 300 to 3000 nM
11 | Cc1ccc2onc(C(=O)N3CC[C@H]4CC[C@@H](C(=O)N5C[C@H](c6ccn(C)c(=O)c6)CC56CC6)N4C(=O)[C@@H](NC(=O)c4ccc5ccc([C@H](F)P(=O)(O)O)cc5c4)C3)c2c1 [Compound 390, ((R)-fluoro(7-(((5S, 8S,10aR)-8-((S)-6-(1-methyl-2-oxo-1,2-dihydropyridin-4-yl)-4-azaspiro[2.4]heptane-4-carbonyl)-3-(5-methylbenzo[d]isoxazole-3-carbonyl)-6-oxodecahydropyrrolo [1,2-a][1,5]diazocin-5-yl)carbamoyl)naphthalen-2-yl)methyl)phosphonic acid] | 1000 to 10000 nM | ≤ 300 nM
12 | Cc1ccc2[nH]nc(C(=O)N3CC[C@H]4CC[C@@H](C(=O)N(C)C5CC5)N4C(=O)[C@@H](NC(=O)c4ccc5ccc(C(F)(F)P(=O)(O)O)cc5c4)C3)c2c1 [Compound 270, ((7-(((5S,8S,10aR)-8-(cyclopropyl(methyl)carbamoyl)-3-(5-methyl-1H-indazole-3-carbonyl)-6-oxodecahydropyrrolo[1,2-a][1,5]diazocin-5-yl)carbamoyl)naphthalen-2-yl)difluoromethyl)phosphonic acid] | 1000 to 10000 nM | ≤ 300 nM
13 | CC(=O)N1CC[C@H]2CC[C@@H](C(=O)N(C)c3ccccc3)N2C(=O)[C@@H](NC(=O)c2nc3cc(C(F)(F)P(=O)(O)O)ccc3s2)C1 [Compound 115, ((2-(((5S,8S,10aR)-3-acetyl-8-(methyl(phenyl)carbamoyl)-6-oxodecahydropyrrolo[1,2-a][1,5]diazocin-5-yl)carbamoyl)benzo[d]thiazol-5-yl)difluoromethyl)phosphonic acid] | > 10000 nM | 300 to 3000 nM
14 | CC(=O)N1CC[C@H]2CC[C@@H](C(=O)N(C)c3ccccc3)N2C(=O)[C@@H](NC(=O)c2cc3cc(C(C)(C)P(=O)(O)O)ccc3s2)C1 [Compound 21, (2-(2-(((5S,8S,10aR)-3-acetyl-8-(methyl(phenyl)carbamoyl)-6-oxodecahydropyrrolo[1,2-a][1,5]diazocin-5-yl)carbamoyl)benzo[b]thiophen-5-yl)propan-2-yl)phospnoic aicd] | > 10000 nM | > 30000 nM
15 | Cc1ccc2onc(C(=O)N3CC[C@H]4CC[C@@H](C(=O)N5CCOC[C@H]5c5ccccc5)N4C(=O)[C@@H](NC(=O)c4ccc5ccc(C(F)P(=O)(O)O)cc5c4)C3)c2c1 (stereo partly drawn) [Compound 371, (fluoro(7-(((5S,8S,10aR)-3-(5-methylbenzo[d]isoxazole-3-carbonyl)-6-oxo-8-((R)-3-phenylmorpholine-4-carbonyl)decahydro-pyrrolo[1,2-a][1,5]diazocin-5-yl)carbamoyl)naphthalen-2-yl)methyl)phosphonic acid] | > 10000 nM | ≤ 300 nM
16 | COc1ccc2onc(C(=O)N3CC[C@H]4CC[C@@H](C(=O)N5CCOCC5)N4C(=O)[C@@H](NC(=O)c4ccc5ccc(C(F)P(=O)(O)O)cc5c4)C3)c2c1 (stereo partly drawn) [Compound 362, (fluoro(7-(((5S,8S,10aR)-3-(5-methoxybenzo[d]isoxazole-3-carbonyl)-8-(morpholine-4-carbonyl)-6-oxodecahydropyrrolo [1,2-a][1,5]diazocin-5-yl)carbamoyl)naphthalen-2-yl)methyl)phosphonic acid] | > 10000 nM | ≤ 300 nM
17 | CC(=O)N1CC[C@H]2CC[C@@H](C(=O)N(C)c3ccc(OCCN(C)C)cc3)N2C(=O)[C@@H](NC(=O)c2cc3cc(C(F)(F)P(=O)(O)O)ccc3s2)C1 [Compound 125, ((2-(((5S,8S,10aR)-3-acetyl-8-((4-(2-(dimethylamino)ethoxy)phenyl)(methyl)carbamoyl)-6-oxodecahydropyrrolo[1,2-a][1,5]diazocin-5-yl)carbamoyl)benzo[b]thiophen-5-yl)difluoromethyl)phosphonic acid] | 1000 to 10000 nM | 300 to 3000 nM
